Test results taken from patent publication US9408921B2, “Antineoplastic hydrogels, and enzyme-instructed preparations thereof” (Brandeis University, priority 2009, dated 2016).
Where “and” joins values, the source holds several entries; their conditions need not be identical. Identical values can stand only once. Entries after “also recorded” stand apart in the source; their conditions may differ. Where a SMILES comes first, the peptide text is derived from it. [ ]: non-standard residue; d: D form. The star is where a group is joined. Paclitaxel(2'-O-succinyl) = CC(=O)O[C@H]1C(=O)[C@@]2(C)[C@H]([C@H](OC(=O)c3ccccc3)[C@]3(O)C[C@H](OC(=O)[C@H](OC(=O)CCC(=O)*)[C@@H](NC(=O)c4ccccc4)c4ccccc4)C(C)=C1C3(C)C)[C@]1(OC(C)=O)CO[C@@H]1C[C@@H]2O; Acetyl(2-naphthyl) = O=C(Cc1ccc2ccccc2c1)*; pY = N[C@@H](Cc1ccc(OP(=O)(O)O)cc1)C(=O)O

Tests used:
HeLa cells = experiment: cytotoxicity against HeLa cells
From the text: To evaluate the activity of 5a, it was used to treat HeLa cells; paclitaxel (1) was used as the control.

solubility = assay type: physicochemical
[1] = stability in water and in gel state; assay type: physicochemical
From the text: Nicolaou, K. C.; Guy, R. K.; Pitsinos, E. N.; Wrasidlo, W. Angew. Chem. Intl. Ed.

CC(=O)O[C@H]1C(=O)[C@@]2(C)[C@H]([C@H](OC(=O)c3ccccc3)[C@]3(O)C[C@H](OC(=O)[C@H](OC(=O)CCC(=O)NCCCC[C@H](NC(=O)[C@H](Cc4ccccc4)NC(=O)[C@H](Cc4ccccc4)NC(=O)Cc4ccc5ccccc5c4)C(=O)N[C@@H](Cc4ccc(OP(=O)(O)O)cc4)C(=O)O)[C@@H](NC(=O)c4ccccc4)c4ccccc4)C(C)=C1C3(C)C)[C@]1(OC(C)=O)CO[C@@H]1C[C@@H]2O [Compound 5a] ({Acetyl(2-naphthyl)}-FFK(Paclitaxel(2'-O-succinyl))[pY]-OH)
IC50 (HeLa cells; HeLa cells, 48 h of incubation): 9.97 ± 2.05 nM
solubility (solubility; 100 mM phosphate buffered saline (PBS) solution): 7600 µg/mL and 4260 µM
stability in water ([1]; in water, without a phosphatase): hardly any dephosphorylation over months

CC(=O)O[C@H]1C(=O)[C@@]2(C)[C@H]([C@H](OC(=O)c3ccccc3)[C@]3(O)C[C@H](OC(=O)[C@H](OC(=O)CCC(=O)NCCCC[C@H](NC(=O)[C@H](Cc4ccccc4)NC(=O)[C@H](Cc4ccccc4)NC(=O)Cc4ccc5ccccc5c4)C(=O)N[C@@H](Cc4ccc(O)cc4)C(=O)O)[C@@H](NC(=O)c4ccccc4)c4ccccc4)C(C)=C1C3(C)C)[C@]1(OC(C)=O)CO[C@@H]1C[C@@H]2O [Compound 5b] ({Acetyl(2-naphthyl)}-FFK(Paclitaxel(2'-O-succinyl))Y-OH)
IC50 (HeLa cells; HeLa cells, 48 h of incubation): 51.4 ± 7.69 nM
solubility (solubility; in water): 21.6 µg/mL and 12.7 µM
stability in gel state ([1]; gel state, mass spectroscopic (MS) analysis): stable in gel state over weeks

NCCCC[C@H](NC(=O)[C@H](Cc1ccccc1)NC(=O)[C@H](Cc1ccccc1)NC(=O)Cc1ccc2ccccc2c1)C(=O)N[C@@H](Cc1ccc(OP(=O)(O)O)cc1)C(=O)O [Compound 4, NapFFKYp] ({Acetyl(2-naphthyl)}-FFK[pY]-OH)
cytotoxicity in words (HeLa cells; HeLa cells): essentially biocompatible; also recorded: very limited toxicity
IC50 (HeLa cells; HeLa cells, 48 h, highest concentration tested 500 μM): > 500000 nM

CC(=O)O[C@H]1C(=O)[C@@]2(C)[C@H]([C@H](OC(=O)c3ccccc3)[C@]3(O)C[C@H](OC(=O)[C@H](O)[C@@H](NC(=O)c4ccccc4)c4ccccc4)C(C)=C1C3(C)C)[C@]1(OC(C)=O)CO[C@@H]1C[C@@H]2O [Compound 1, Paclitaxel, reference compound]
IC50 (HeLa cells; Homo sapiens, HeLa, 48 h): 47.3 ± 2.99 nM
